The text below walks through data of patent US9149035B2, “Antimicrobial composition” (CONVATEC TECHNOLOGIES, INC., priority 2005, dated 2015).

Read-outs that look alike come from different tables or passages of the source.

Assay [1] relates to Ps aeruginosa. Put plainly: Corrected zone of inhibition of hydrated wound dressings on Poloxamer gel with MHB (biofilm bacteria). It is filed as cell-based. As to conditions: bacteria grown in the biofilm state (poloxamer gel). The text has this:
The antimicrobial dressings used in this study were ActicoatTM (Smith and Nephew) and AQUACEL® Ag Hydrofiber® (ConvaTec). Acticoat is a nanocrystalline silver antimicrobial barrier dressing which consists of a rayon/polyester non-woven inner core laminated between two layers of silver-coated high density polyethylene mesh (HDPE). The layers are held together with ultrasound […] comprised of sodium carboxymethylcellulose Hydrofiber® and ionic silver. The silver cations in AQUACEL® Ag are associated with the individual highly absorbent anionic carboxymethylcellulose fibres of the Hydrofiber® dressing. AQUACEL® Hydrofiber® dressing (without silver) was also used as a control. […] The mean dressing size was then subtracted from the mean zone of inhibition to determine the corrected zone of inhibition (CZOI). A CZOI test allows for any inherent variability in the shape and size of zones created by the silver dressings which may change in dimension following hydration.

In assay [2] the test system is Seven antibiotic resistant microorganisms.
The test system of assay [3] is Ps aeruginosa. As to conditions: poloxamer gel (biofilm state) vs without.
Another assay has as its system C. kruzei. As to conditions: poloxamer gel (biofilm state) vs without.
Assay [4] concerns Pseudomonas aeruginosa, Serratia marcescens, vancomycin resistant Enterococcus (VRE) and methicillin resistant Staphylococcus aureus (MRSA). Conditions: EDTA 0.1-40% weight by volume; planktonic and biofilm state.

Regarding `O=C(O)CN(CCN(CC(=O)O)CC(=O)O)CC(=O)O` [EDTA, Ethylenediaminetetra-acetic acid], the “Effect of EDTA on the effects of ionic silver” value in the assay with Ps aeruginosa [1] is “enhances”. Also, the Zones of inhibition entry with Serratia marcescens (5% EDTA) is listed as “no zones”; in the assay on Serratia marcescens (10% EDTA), “no zones”; in assay [2] (0.1% EDTA, any organism studied), “no zones of inhibition were evident”; in assay [2] (40% EDTA, all organisms tested) it was “evident”. Further, the “Zones of inhibition in the presence of poloxamer compared with planktonic” value in assay [2] (poloxamer gel (biofilm state) vs without) is “slightly smaller”. Further, the “Zones of inhibition with poloxamer compared with without” value in the assay on Ps aeruginosa [3] and in the assay with C. kruzei was “larger zones” each time. In assay [4], the Killing of microorganisms entry is listed as “effective in killing”.
